From article PMC8199067, “Urolithin and Reduced Urolithin Derivatives as Potent Inhibitors of Tyrosinase and Melanogenesis: Importance of the 4-Substituted Resorcinol Moiety” (International Journal of Molecular Sciences, 2021)

What was measured:
[1] = target: mushroom tyrosinase (Agaricus bisporus, UniProt C7FF04); experiment: Mushroom tyrosinase inhibitory assay (L-tyrosine substrate); type: biochemical; conditions: 50 μM, L-tyrosine as substrate, mean ± SEM, NI means no inhibition
Experimental: The experiment was repeated three times. Mushroom tyrosinase inhibitions % were calculated using:% Inhibition = [1 − (A/B)] × 100(1) where A is the absorbance of the test compound and B is the absorbance of the blank.
Log-linear curves were plotted, and their equations were determined.

[2] = system: B16F10 melanoma cells; design: method as in PMID 28726389; conditions: B16F10 melanoma cells ref 70; cited from earlier work
[3] = system: B16F10 melanoma cells; design: method as in Su and co-workers; conditions: at the same concentration (20 µM) ref Su and co-workers; cited from earlier work

Chain of mushroom tyrosinase (C7FF04 1-392 limits assumed): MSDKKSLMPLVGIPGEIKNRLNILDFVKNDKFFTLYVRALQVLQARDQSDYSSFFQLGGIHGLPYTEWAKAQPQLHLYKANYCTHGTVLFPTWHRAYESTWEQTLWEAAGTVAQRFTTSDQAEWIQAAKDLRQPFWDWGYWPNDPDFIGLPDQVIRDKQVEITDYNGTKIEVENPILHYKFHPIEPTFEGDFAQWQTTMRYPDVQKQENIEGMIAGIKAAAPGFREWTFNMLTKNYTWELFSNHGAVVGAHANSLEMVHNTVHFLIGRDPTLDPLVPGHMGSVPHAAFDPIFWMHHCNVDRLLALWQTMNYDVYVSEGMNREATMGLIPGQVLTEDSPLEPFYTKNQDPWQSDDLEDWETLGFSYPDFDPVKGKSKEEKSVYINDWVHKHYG

| Structure (SMILES) | inhibition at 50 µM [1] | Tyrosinase Inhibition (%) ([1]; listed as urolithin B) | Tyrosinase Inhibition (%) ([1]; listed as urolitin B) | Antimelanogenic effect [2] | Cytotoxicity compared with 1c and 1h [3] | Tyrosinase Inhibition (%) ([1]; listed as urolithin A) |
| --- | --- | --- | --- | --- | --- | --- |
| O=c1oc2cc(O)ccc2c2ccccc12 [Compound 1a, 3-Hydroxy-6H-benzo[c]chromen-6-one] | < 0% | did not inhibit tyrosinase | did not show inhibitory activity | antimelanogenic effects through tyrosinase inhibition | higher cytotoxicity |  |
| O=c1oc2cc(O)ccc2c2ccc(O)cc12 [Compound 1e, 3,8-Dihydroxy-6H-benzo[c]chromen-6-one] | < 0% |  |  | antimelanogenic effects through tyrosinase inhibition | higher cytotoxicity | did not show inhibitory activity |
